Measured values taken from article PMC9370394, “New Monocyclic Terpenoid Lactones from a Brown Algae Sargassum macrocarpum as Monoamine Oxidase Inhibitors” (Plants, 2022).

Target: T1, human monoamine oxidase A (hMAO-A) (Homo sapiens, UniProt P21397)
T1 construct: gene MAOA
T1 sequence (P21397 1-527): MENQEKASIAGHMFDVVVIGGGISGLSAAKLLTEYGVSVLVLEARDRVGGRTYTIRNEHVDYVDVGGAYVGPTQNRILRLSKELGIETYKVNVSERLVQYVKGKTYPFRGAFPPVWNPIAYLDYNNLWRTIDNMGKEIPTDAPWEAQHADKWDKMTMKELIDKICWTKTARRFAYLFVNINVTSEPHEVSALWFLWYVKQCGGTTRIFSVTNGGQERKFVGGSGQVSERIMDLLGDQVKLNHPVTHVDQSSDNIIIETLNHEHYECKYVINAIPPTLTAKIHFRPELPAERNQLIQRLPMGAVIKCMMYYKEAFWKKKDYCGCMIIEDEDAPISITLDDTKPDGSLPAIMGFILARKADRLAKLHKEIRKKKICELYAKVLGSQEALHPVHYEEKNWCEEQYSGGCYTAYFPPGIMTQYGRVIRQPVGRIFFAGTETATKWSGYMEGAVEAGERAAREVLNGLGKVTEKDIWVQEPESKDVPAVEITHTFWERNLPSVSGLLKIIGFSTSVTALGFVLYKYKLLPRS
Assay: MAO-Glo luminescence enzyme assay, single concentration of […]
Format: biochemical

## CC(=O)CC/C=C1/CC[C@H](C(C)(C)O)OC1=O [compound 1, 6R-(2-hydroxypropan-2-yl)-3Z-(4-oxopentylidene)tetrahydro-2H-pyran-2-one]
  inhibition at 200 µM: 42.2 ± 2.68%
